Experimental findings from paper PMC10458253, “Unraveling the In Vitro Toxicity Profile of Psychedelic 2C Phenethylamines and Their N-Benzylphenethylamine (NBOMe) Analogues” (Pharmaceuticals, 2023) are described below.

One may read the inhibition as the percentage by which the read-out fell short of the control.

The subject of data set [1] is differentiated SH-SY5Y cells. As to the kind of experiment: Resazurin reduction cytotoxicity assay, differentiated SH-SY5Y. Type of data set: cell-based. The note with it: 24 h; for Top (maximal effect): maximum cell death of fitted curve; for EC50: Homo sapiens, cell death curves 0–1500 µM, read-out: EC50 (half-maximum-effect concentration). As for the experimental part: SH-SY5Y cells were acquired from the American Type Culture Collection (Manassas, VA, USA). Cells were cultured in 25 cm^2 flasks using DMEM—high glucose supplemented with 10% heat-inactivated FBS, 1% MEM non-essential amino acids and 1% penicillin/streptomycin mixture, and maintained in a 5% CO2–95% air atmosphere, at 37 °C, until 80% confluence. Cells were routinely subcultured using trypsin-EDTA and, to avoid phenotypic alterations, were always used between passages 23 and 29. In all experiments, the cells were seeded at a density of 25,000 cells/cm^2. As previously described, to achieve a dopaminergic neuronal phenotype, the cells were seeded in a complete DMEM medium containing 10 μM retinoic acid and, after 3 days, 80 nM TPA was added to the cultures for another 3 days.
(§1) Neutral red uptake and resazurin reduction assays were performed after exposure of differentiated SH-SY5Y and HepG2 cells to the drugs under study. To obtain a concentration–response curve, a broad concentration range (0–2000 µM) was investigated, and cytotoxicity was evaluated 24 h after exposure in 96-well cell culture plates. As previously described, neutral red uptake assay is based on the incorporation of neutral red dye into the lysosomes of viable cells and the amount of dye incorporated represents the cells’ lysosomal functionality, and resazurin reduction assay is based on the irreversible reduction of resazurin dye to the fluorescent resorufin product by metabolically active cells.
(§2) Briefly, 24 h after being exposed to different concentrations of the compounds, differentiated SH-SY5Y cells were incubated with either neutral red (50 µg/mL) or resazurin (10 µg/mL) solutions for 90 min, at 37 °C, in a 5% CO2–95% air atmosphere. For HepG2 cells, 24 h after the exposure to the tested drugs, the cells were incubated with either neutral red (50 µg/mL) or resazurin (10 µg/mL) solutions for 45 and 60 min, respectively, at 37 °C, in a 5% CO2–95% air atmosphere.
(§3) In the neutral red uptake assay, at the end of the incubation period, the cell culture medium was removed and a solution of absolute ethyl alcohol/distilled water (1:1) with 5% acetic acid was added to extract the dye absorbed only by the viable cells. The absorbance was measured at 540 nm in a multi-well plate reader (PowerWaveX BioTek Instruments, Winooski, VT, USA). In the resazurin assay, at the end of the incubation period, the fluorescence was measured at 530 nm excitation and 590 nm emission wavelengths in a multi-well plate reader (PowerWaveX BioTek Instruments, Winooski, VT, USA).
(§4) The results were expressed as a percentage of control cells. At least four independent experiments were performed, in triplicate. For differentiated SH-SY5Y cells, the neutral red uptake assay was identified as the most sensitive assay and, therefore, used for the subsequent experiments. On the other hand, for HepG2 cells, the resazurin reduction assay was identified as the most sensitive assay and, therefore, used for the subsequent experiments.
Background: Alamar Blue is a resazurin reagent that responds to reducing activity.

The next data set addresses T1, hMAO-B (Homo sapiens, UniProt P27338).
T1 construct: purchased Sigma Aldrich; host or cells: insect cells (BTI-TN-5B1-4), recombinant baculovirus
T1 sequence (P27338 1-520): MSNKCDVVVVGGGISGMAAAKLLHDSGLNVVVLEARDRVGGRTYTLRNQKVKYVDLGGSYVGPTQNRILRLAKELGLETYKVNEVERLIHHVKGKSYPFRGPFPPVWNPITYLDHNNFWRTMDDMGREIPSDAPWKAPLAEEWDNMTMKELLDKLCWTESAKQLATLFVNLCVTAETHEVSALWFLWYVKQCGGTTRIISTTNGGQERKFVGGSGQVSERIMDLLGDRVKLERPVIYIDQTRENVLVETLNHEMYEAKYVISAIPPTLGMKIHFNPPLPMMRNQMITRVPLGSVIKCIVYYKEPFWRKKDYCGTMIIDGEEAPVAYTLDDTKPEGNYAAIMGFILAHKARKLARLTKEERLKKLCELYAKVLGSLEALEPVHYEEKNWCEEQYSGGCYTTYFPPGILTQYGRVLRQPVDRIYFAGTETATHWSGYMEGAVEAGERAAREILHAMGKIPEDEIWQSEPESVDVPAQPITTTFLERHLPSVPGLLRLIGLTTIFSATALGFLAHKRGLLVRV
As to the kind of experiment: biochemical. The note with it: read-out: % inhibition at 10 µM hMAO-B, kynuramine substrate. How it is done: The hMAO inhibitory activities were assessed in microsomal MAO isoforms, prepared from insect cells (BTI-TN-5B1-4) infected with recombinant baculovirus containing cDNA inserts for hMAO-A or hMAO-B, by measuring the enzymatic conversion rates of kynuramine into 4-hydroxyquinoline. […] All assays were performed in sodium phosphate buffer solution 50 mM pH 7.4.
The percentages of MAO inhibition of each compound were determined from three independent experiments performed in triplicate.

In the next data set the test system is HepG2 cells. As to the kind of experiment: Neutral red uptake cytotoxicity assay, HepG2. The note with it: HepG2, 24 h; for Top (maximal effect): maximum cell death of fitted curve; for EC50: Homo sapiens, cell death curves 0–2000 µM, read-out: EC50 (half-maximum-effect concentrations). Type of data set: cell-based. As for the experimental part:
HepG2 cells were acquired from the American Type Culture Collection (Manassas, VA, USA). Cells were cultured in 75 cm^2 flasks using DMEM—high glucose supplemented with a 10% heat inactivated FBS and 1% penicillin/streptomycin mixture, and maintained in a 5% CO2–95% air atmosphere, at 37 °C, until 80% confluence. Cells were routinely subcultured using trypsin-EDTA and, to avoid phenotypic alterations, used between passages 16 and 22. In all experiments, the cells were seeded at a density of 250,000 cells/cm^2 and used 24 h after seeding.
as §1, §2, §3, §4

In data set [2] the test system is differentiated SH-SY5Y cells. As to the kind of experiment: Effect of CYP inhibitors on drug cytotoxicity (neutral red uptake), differentiated SH-SY5Y. Type of data set: cell-based. The note with it: 24 h, drug concentrations as given in the source; for change of neutral red uptake with ketoconazole vs drug alone: 10 μM ketoconazole (CYP3A4 inhibitor); for change of neutral red uptake with quinidine vs drug alone: 10 μM quinidine (CYP2D6 inhibitor); for change of neutral red uptake with ABT vs drug alone: 1000 μM ABT (non-selective CYP inhibitor). How it is done:
Differentiated SH-SY5Y cells were incubated with the drugs in the presence or absence of different CYP inhibitors: 1000 μM ABT, a non-selective CYP inhibitor, 10 μM quinidine, a specific CYP2D6 inhibitor, or 10 μM ketoconazole, a specific CYP3A4 inhibitor.
CYP inhibition assay was used to evaluate the drugs’ potential to inhibit drug-metabolizing enzymes. Accordingly, SH-SY5Y and HepG2 cells were seeded in 96-well cell culture plates and pre-incubated with 1000 µM ABT—a non-isoform specific CYP450 inhibitor, 10 µM quinidine—a CYP2D6 inhibitor or 1 µM ketoconazole—a CYP3A4 inhibitor. After 1 h, the drugs (0–500 µM) were co-incubated with the inhibitors for 24 h, at 37 °C, in a 5% CO2–95% air atmosphere. The drugs’ cytotoxicity was then assessed through the neutral red uptake assay for differentiated SH-SY5Y cells, and through the resazurin reduction assay for HepG2 cells, and the results were expressed as percentage of control cells. At least four independent experiments were performed, in triplicate.

Turning to `COc1ccccc1CNCCc1cc(OC)c(OC)c(OC)c1` [Mescaline-NBOMe, 3,4,5-Trimethoxy-N-(2-methoxybenzyl)-β-phenethylamine], in data set [1], the “Bottom (baseline)” value is 2.774, the “Hill Slope” value was found to be 2.524, the “Top (maximal effect)” value came to 94.72 and the EC50 was determined as 677 µM. Further, the inhibition at 10 µM at hMAO-B was found to be 89%. Further, in the data set on HepG2 cells, the “Bottom (baseline)” value is 2.853, the “Hill Slope” value is reported as 3.666, the “Top (maximal effect)” value came out at 98.25 and the EC50 came out at 476 µM. In addition, in data set [2], the “change of neutral red uptake with ketoconazole vs drug alone” value (“change … with ketoconazole vs drug alone” for short) was “small but significant decrease in neutral red uptake”, the “change of neutral red uptake with quinidine vs drug alone” value (“change … with quinidine vs drug alone” below) is listed as “significant decrease in the neutral red uptake” and the “change of neutral red uptake with ABT vs drug alone” value (from here on “change … with ABT vs drug alone”) was “significant decrease in neutral red uptake”.
Regarding `COc1cc(CCN)cc(OC)c1OC.Cl` [Mescaline, 3,4,5-Trimethoxyphenethylamine hydrochloride], the “cytotoxic effect (in words)” value in data set [1] (0–1500 µM) is “no significant cytotoxic effects”. Also, the inhibition at 10 µM at hMAO-B is 21.2%. The “cytotoxicity (in words)” value in the data set with HepG2 cells (0–2000 µM) is listed as “not causing a significant cytotoxicity”. In data set [2], the “change … with ketoconazole vs drug alone” value is given as “small but significant decrease in neutral red uptake” and the “change … with quinidine vs drug alone” value is “significant decrease in the neutral red uptake”.
Regarding `COc1cc(CCN)c(OC)cc1Br` [2C-B, 4-Bromo-2,5-dimethoxy-β-phenethylamine], in data set [1], the “Bottom (baseline)” value is on record as 7.210, the “Hill Slope” value is listed as 1.670, the “Top (maximal effect)” value is listed as 83.95 and the EC50 was 225 µM. The inhibition at 10 µM at hMAO-B was found to be 27.2%. In addition, in the data set with HepG2 cells, the “Bottom (baseline)” value is listed as 5.433, the “Hill Slope” value is 5.413, the “Top (maximal effect)” value stood at 95.01 and the EC50 is 257 µM. In data set [2], the “change … with ketoconazole vs drug alone” value is “small but significant decrease in neutral red uptake” and the “change … with quinidine vs drug alone” value is recorded as “significant decrease in the neutral red uptake”.
On to `COc1cc([N+](=O)[O-])c(OC)cc1CCNCc1ccccc1OC` [25N-NBOMe, 4-Nitro-2-dimethoxy-N-(2-methoxybenzyl)-β-phenethylamine], for which, in data set [1], the “Bottom (baseline)” value stood at 0.9223, the “Hill Slope” value stood at 4.692, the “Top (maximal effect)” value is listed as 80.10 and the EC50 amounted to 154 µM. Further, the inhibition at 10 µM on hMAO-B was 25.5%. Besides, in the data set on HepG2 cells, the “Bottom (baseline)” value is recorded as 7.254, the “Hill Slope” value worked out at 6.518, the “Top (maximal effect)” value was 94.13 and the EC50 worked out at 115 µM. In data set [2], the “change … with ketoconazole vs drug alone” value is given as “small but significant decrease in neutral red uptake”, the “change … with quinidine vs drug alone” value is on record as “significant decrease in the neutral red uptake” and the “change … with ABT vs drug alone” value is “significant decrease in neutral red uptake”.
Regarding `COc1cc(CCNCc2ccccc2OC)c(OC)cc1Br` [25B-NBOMe, 4-Bromo-2,5-dimethoxy-N-(2-methoxybenzyl)-β-phenethylamine], in data set [1], the “Bottom (baseline)” value stood at 6.827, the “Hill Slope” value came out at 4.464, the “Top (maximal effect)” value turned out to be 80.62 and the EC50 was found to be 58.4 µM. The inhibition at 10 µM at hMAO-B came to 33.9%. In the data set on HepG2 cells, the “Bottom (baseline)” value was determined as 4.279, the “Hill Slope” value is 2.442, the “Top (maximal effect)” value was “≈100” and the EC50 was 34.7 µM. Besides, in data set [2], the “change … with quinidine vs drug alone” value is on record as “significant decrease in the neutral red uptake”.
Take `COc1cc([N+](=O)[O-])c(OC)cc1CCN` [2C-N, 2,5-dimethoxy-4-nitrophenethylamine]: in data set [1], the “Bottom (baseline)” value came to 4.440, the “Hill Slope” value came out at 1.627, the “Top (maximal effect)” value is given as “≈100” and the EC50 came out at 832 µM. The inhibition at 10 µM at hMAO-B stood at 18%. Further, in the data set with HepG2 cells, the “Bottom (baseline)” value was found to be 7.328, the “Hill Slope” value is 4.340, the “Top (maximal effect)” value is reported as “≈100” and the EC50 turned out to be 960 µM. In addition, in data set [2], the “change … with quinidine vs drug alone” value is given as “significant decrease in the neutral red uptake” and the “change … with ABT vs drug alone” value is listed as “significant increase in neutral red uptake”.
